Measured values taken from ChEMBL document CHEMBL2074025 (AIDS, 2002).

What was measured:
Format in all cases: functional, cell-based
[1] = target: T1, Multidrug resistance-associated protein 1 (Homo sapiens, UniProt P33527); assay: TP_TRANSPORTER: inhibition of Calcein efflux (Calcein: 0.05 micro;M, Amprenavir: 0.02 uM) in UMCC-1/VP cells
[2] = target: T1, Multidrug resistance-associated protein 1; assay: TP_TRANSPORTER: inhibition of Calcein efflux (Calcein: 0.05 micro;M, Indinavir: 0.114 uM) in UMCC-1/VP cells
[3] = target: T1, Multidrug resistance-associated protein 1; assay: TP_TRANSPORTER: inhibition of Calcein efflux (Calcein: 0.05 micro;M, Lamivudine: 0.55 uM) in UMCC-1/VP cells
[4] = target: T1, Multidrug resistance-associated protein 1; assay: TP_TRANSPORTER: inhibition of Calcein efflux (Calcein: 0.05 micro;M, Zidovudine: 0.02 uM) in UMCC-1/VP cells

T1 sequence (P33527 whole entry): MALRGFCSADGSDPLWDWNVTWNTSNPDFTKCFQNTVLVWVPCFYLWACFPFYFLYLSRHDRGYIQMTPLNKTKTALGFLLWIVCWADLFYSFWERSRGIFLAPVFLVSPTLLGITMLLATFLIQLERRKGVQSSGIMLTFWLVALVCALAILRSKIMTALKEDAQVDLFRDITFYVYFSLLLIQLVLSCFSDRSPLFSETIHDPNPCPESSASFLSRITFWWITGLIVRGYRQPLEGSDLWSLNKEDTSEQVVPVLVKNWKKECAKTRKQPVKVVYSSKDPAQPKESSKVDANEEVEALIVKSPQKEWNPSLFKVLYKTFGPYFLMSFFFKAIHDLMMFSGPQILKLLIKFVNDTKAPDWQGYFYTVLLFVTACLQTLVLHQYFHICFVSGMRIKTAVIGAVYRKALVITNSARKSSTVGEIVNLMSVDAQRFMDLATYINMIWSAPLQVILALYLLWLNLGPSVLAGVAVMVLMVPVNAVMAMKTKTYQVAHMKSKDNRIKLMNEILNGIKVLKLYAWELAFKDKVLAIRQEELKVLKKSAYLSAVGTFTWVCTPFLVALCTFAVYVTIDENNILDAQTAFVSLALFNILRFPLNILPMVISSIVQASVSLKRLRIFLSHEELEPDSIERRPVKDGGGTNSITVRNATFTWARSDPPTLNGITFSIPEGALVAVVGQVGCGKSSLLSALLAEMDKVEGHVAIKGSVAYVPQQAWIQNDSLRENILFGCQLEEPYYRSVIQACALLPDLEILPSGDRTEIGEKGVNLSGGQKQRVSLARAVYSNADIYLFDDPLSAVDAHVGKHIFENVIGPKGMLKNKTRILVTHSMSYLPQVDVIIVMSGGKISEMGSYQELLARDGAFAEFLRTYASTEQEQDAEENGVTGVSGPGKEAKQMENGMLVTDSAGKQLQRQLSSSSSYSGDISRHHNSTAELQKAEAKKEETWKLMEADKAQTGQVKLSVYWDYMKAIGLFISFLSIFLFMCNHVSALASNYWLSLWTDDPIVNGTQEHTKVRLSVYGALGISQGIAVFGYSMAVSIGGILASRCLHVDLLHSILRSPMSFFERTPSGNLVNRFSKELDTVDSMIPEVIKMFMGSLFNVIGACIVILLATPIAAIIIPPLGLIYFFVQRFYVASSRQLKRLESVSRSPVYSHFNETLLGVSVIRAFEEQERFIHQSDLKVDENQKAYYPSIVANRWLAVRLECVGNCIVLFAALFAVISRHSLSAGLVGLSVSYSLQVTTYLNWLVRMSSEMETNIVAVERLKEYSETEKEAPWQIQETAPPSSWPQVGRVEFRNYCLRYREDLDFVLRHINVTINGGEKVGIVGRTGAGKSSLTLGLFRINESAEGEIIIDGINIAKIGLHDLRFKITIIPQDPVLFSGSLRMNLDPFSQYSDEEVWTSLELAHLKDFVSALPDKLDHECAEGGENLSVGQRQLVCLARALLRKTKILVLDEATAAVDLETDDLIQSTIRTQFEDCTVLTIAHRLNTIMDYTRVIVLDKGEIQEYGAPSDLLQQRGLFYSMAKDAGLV

SMILES: CC(C)CN(C[C@@H](O)[C@H](Cc1ccccc1)NC(=O)O[C@H]1CCOC1)S(=O)(=O)c1ccc(N)cc1
- Activity [1]: is not an inhibitor [-]

SMILES: CC(C)(C)NC(=O)[C@@H]1CN(Cc2cccnc2)CCN1C[C@@H](O)C[C@@H](Cc1ccccc1)C(=O)N[C@H]1c2ccccc2C[C@H]1O.O
- Activity [2]: is not an inhibitor [-]

SMILES: Nc1ccn([C@@H]2CS[C@H](CO)O2)c(=O)n1 [LAMIVUDINE]
- Activity [3]: is not an inhibitor [-]

SMILES: Cc1cn([C@H]2C[C@H](N=[N+]=[N-])[C@@H](CO)O2)c(=O)[nH]c1=O [ZIDOVUDINE]
- Activity [4]: is not an inhibitor [-]
